From PubChem BioAssay (NCI) come the findings set out here.

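Tested at 5 concentrations; 48 h exposure; 96-well plates; endpoints linearly interpolated, else capped at highest concentration. TGI marks complete inhibition of growth.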 A value given as a limit tells only on which side of the number the result lay.

Among the test systems are SK-OV-3 ovarian; NCI-H23 lung; SK-MEL-28 melanoma; SK-MEL-2 melanoma; DMS 114 small cell lung; LXFL 529 NSCLC; DMS 273 small cell lung; SNB-78 CNS; SNB-75 CNS.
What all share (test): inhibition of tumour cell growth, NCI panel, 48 h

For `CCCCCCCCCCCC(=O)OCCOCCOCCOCCOCCOCc1ccc(OC)cc1`, the TGI in the assay with SK-OV-3 ovarian, with NCI-H23 lung, in the assay on SK-MEL-28 melanoma, in the assay with SK-MEL-2 melanoma, with DMS 114 small cell lung and in the assay on LXFL 529 NSCLC was above 100 µM each time. Also, the TGI in the assay with DMS 273 small cell lung, in the assay with SNB-78 CNS and in the assay with SNB-75 CNS was above 100 µM throughout.
In the case of `CCOC(=O)C1Oc2ccc([N+](=O)[O-])c3c2C1(O)CCC3` (stereo not given), the TGI in the assay with SK-OV-3 ovarian, in the assay on NCI-H23 lung, in the assay on SK-MEL-28 melanoma, with SK-MEL-2 melanoma, in the assay on DMS 114 small cell lung and in the assay on LXFL 529 NSCLC was above 100 µM each time. For the same compound, the TGI with DMS 273 small cell lung, in the assay on SNB-78 CNS and in the assay with SNB-75 CNS was above 100 µM throughout.
On to `N#CC(C(=O)CCC(=O)Nc1cccc(Cl)c1)c1ccccc1` (stereo not given), for which the TGI in the assay with SK-OV-3 ovarian, with NCI-H23 lung, in the assay on SK-MEL-28 melanoma, in the assay with SK-MEL-2 melanoma, in the assay with DMS 114 small cell lung and in the assay on LXFL 529 NSCLC was above 100 µM in each case. For the same compound, the TGI in the assay with DMS 273 small cell lung, in the assay with SNB-78 CNS and in the assay with SNB-75 CNS was above 100 µM in each case.
Take `CCCCCCc1cc(C(=O)Nc2cccc(C(F)(F)F)c2)nc(N)n1`: the TGI in the assay with SK-OV-3 ovarian, in the assay on NCI-H23 lung, with SK-MEL-28 melanoma, with SK-MEL-2 melanoma, in the assay with DMS 114 small cell lung and in the assay with LXFL 529 NSCLC was above 100 µM each time. Besides, the TGI with DMS 273 small cell lung, with SNB-78 CNS and in the assay with SNB-75 CNS was above 100 µM in each case.
`CSCC1CC(c2ccc(Cl)cc2)=NO1` (stereo not given): the TGI in the assay on SK-OV-3 ovarian, in the assay on NCI-H23 lung, in the assay with SK-MEL-28 melanoma, in the assay with SK-MEL-2 melanoma, in the assay on DMS 114 small cell lung and in the assay with LXFL 529 NSCLC was above 100 µM each time. Moreover, the TGI with DMS 273 small cell lung, with SNB-78 CNS and with SNB-75 CNS was above 100 µM each time.
In the case of `C[Si](C)(C)OC1(C#N)C2C3CC4C2C(=O)C2C4C3C21` (stereo not given), the TGI in the assay with SK-OV-3 ovarian, in the assay on SK-MEL-28 melanoma, in the assay on SK-MEL-2 melanoma, in the assay with DMS 114 small cell lung, with LXFL 529 NSCLC and in the assay on DMS 273 small cell lung was above 100 µM in each case. For the same compound, the TGI in the assay on SNB-78 CNS and with SNB-75 CNS was above 100 µM in each case.
As for `CCC1CN2CCc3cc(OC)c(OC)cc3C2CC1CC1c2cc(OC)c(OC)cc2CCN1C(=O)C1CCCN1C(=O)OCc1ccccc1` (stereo not given), the TGI came to 32.7 µM in the assay with NCI-H23 lung; 30.7 µM in the assay on SK-MEL-28 melanoma; 33.6 µM with SK-MEL-2 melanoma; 26.9 µM in the assay with DMS 114 small cell lung; 29.9 µM in the assay with LXFL 529 NSCLC; 30.3 µM in the assay with DMS 273 small cell lung. The TGI came out at 31.2 µM in the assay on SNB-78 CNS and 28.3 µM with SNB-75 CNS.
As to `c1ccc(SC(CCCCC(Sc2ccccc2)Sc2ccccc2)Sc2ccccc2)cc1`, the TGI in the assay on SK-OV-3 ovarian, with NCI-H23 lung, in the assay with SK-MEL-28 melanoma, in the assay with SK-MEL-2 melanoma, with DMS 114 small cell lung and in the assay with LXFL 529 NSCLC was above 100 µM each time. Further, the TGI in the assay on DMS 273 small cell lung, with SNB-78 CNS and in the assay with SNB-75 CNS was above 100 µM in each case.
In the case of `O=C1C(=O)N(c2ccc(Cl)c(Cl)c2)C(=O)C(=O)C1c1nc2ccccc2s1`, the TGI with SK-OV-3 ovarian, with NCI-H23 lung, in the assay on SK-MEL-28 melanoma, with SK-MEL-2 melanoma, in the assay on DMS 114 small cell lung and in the assay with LXFL 529 NSCLC was above 100 µM throughout. For the same compound, the TGI in the assay on DMS 273 small cell lung, with SNB-78 CNS and in the assay on SNB-75 CNS was above 100 µM each time.
As for `Cc1cc(N(CCC#N)CCC#N)ccc1/C=C/C(=O)Nc1cccc(Cl)c1`, the TGI in the assay on SK-OV-3 ovarian, in the assay with NCI-H23 lung, with SK-MEL-28 melanoma, in the assay on SK-MEL-2 melanoma, in the assay on DMS 114 small cell lung and in the assay with LXFL 529 NSCLC was above 100 µM throughout. Besides, the TGI with DMS 273 small cell lung and with SNB-75 CNS was above 100 µM throughout.
On to `C=C1COC(/C=C(\C)CC/C=C(\C)CCl)C1` (stereo not given), for which the TGI in the assay on SK-OV-3 ovarian, in the assay with NCI-H23 lung, in the assay with SK-MEL-28 melanoma, with SK-MEL-2 melanoma, with DMS 114 small cell lung and with LXFL 529 NSCLC was above 100 µM throughout. Further, the TGI with DMS 273 small cell lung, with SNB-78 CNS and with SNB-75 CNS was above 100 µM throughout.
For the compound `C=CCc1cc(OC)c2c(c1)C(O)CC(c1ccccc1)O2` (stereo not given), the TGI in the assay on SK-OV-3 ovarian, in the assay with NCI-H23 lung, in the assay with SK-MEL-28 melanoma, in the assay with SK-MEL-2 melanoma, with DMS 114 small cell lung and with LXFL 529 NSCLC was above 100 µM throughout. Besides, the TGI in the assay with DMS 273 small cell lung, with SNB-78 CNS and in the assay on SNB-75 CNS was above 100 µM in each case.
In the case of `COc1ccc(N=c2ssc3c(=S)ssc23)cc1`, the TGI in the assay with SK-OV-3 ovarian is above 100 µM; in the assay with NCI-H23 lung it was above 100 µM; with SK-MEL-28 melanoma, 55.6 µM; with SK-MEL-2 melanoma, above 100 µM; with DMS 114 small cell lung it was 26 µM; in the assay on LXFL 529 NSCLC, 31.9 µM. For the same compound, the TGI was 74.4 µM with DMS 273 small cell lung, 99.4 µM in the assay with SNB-78 CNS and 75.6 µM in the assay on SNB-75 CNS.
With `Cn1cnc2nc(Cl)nc(NC(C)(C)C(C)(C)O)c21`, the TGI in the assay on SK-OV-3 ovarian, in the assay with NCI-H23 lung, in the assay on SK-MEL-2 melanoma, in the assay with DMS 114 small cell lung, in the assay on DMS 273 small cell lung and in the assay on SNB-78 CNS was above 100 µM in each case. In the assay on SNB-75 CNS, this compound registered a TGI above 100 µM.
Regarding `O=C(O)C1(P(=O)(O)O)CC1`, the TGI in the assay on SK-OV-3 ovarian, in the assay on NCI-H23 lung, in the assay on SK-MEL-28 melanoma, in the assay on SK-MEL-2 melanoma, in the assay on DMS 114 small cell lung and with LXFL 529 NSCLC was above 100 µM each time. Further, the TGI in the assay with DMS 273 small cell lung, in the assay on SNB-78 CNS and with SNB-75 CNS was above 100 µM throughout.
